Biological target: SIRT6 enzyme (Homo sapiens, UniProt Q8N6T7)
Experiment: Measurement of deacetylation activity (SIRT6, AlphaLISA, H3K9(Ac) peptide)
Type: biochemical
Details: SIRT6 25 ng/mL, H3K9(Ac) biotin peptide 2 nM, NAD 10 μM, room temperature 30 minutes, duplicate
Outline: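 Activation read as EC150, the concentration giving 150% activity relative to enzyme/no-enzyme DMSO controls, via variable-slope fit. Deacetylation of 2 nM biotinylated H3K9(Ac) peptide with 10 μM NAD+ by 25 ng/mL SIRT6 ran 30 min at room temperature, pH 8.0, then AlphaLISA detection of unmodified H3K9.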

SIRT6 enzyme, sequence (Q8N6T7 whole entry, species assumed): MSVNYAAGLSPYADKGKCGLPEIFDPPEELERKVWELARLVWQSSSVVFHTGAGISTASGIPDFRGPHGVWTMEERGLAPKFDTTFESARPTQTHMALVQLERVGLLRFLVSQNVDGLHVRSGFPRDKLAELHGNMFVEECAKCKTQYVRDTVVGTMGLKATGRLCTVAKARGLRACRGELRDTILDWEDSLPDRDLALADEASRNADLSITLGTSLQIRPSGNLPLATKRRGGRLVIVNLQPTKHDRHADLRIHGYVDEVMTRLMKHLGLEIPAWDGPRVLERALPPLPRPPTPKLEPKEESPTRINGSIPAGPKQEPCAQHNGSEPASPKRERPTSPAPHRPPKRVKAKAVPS

| Structure (SMILES) | EC150 (the concentration of the compound showing a relative enzyme activity of 150%) [μm] |
| --- | --- |
| C[C@H](CO)NC(=O)Nc1nc2c(s1)[C@@H]1COC[C@H](C2)N1c1nc2cc(C(F)F)ccc2o1 [Example 56, N-{(4S,8S)-10-[5-(difluoromethyl)-1,3-benzoxazol-2-yl]-4,7,8,9-tetrahydro-5H-4,8-epiminooxocino[5,4-d][1,3]thiazol-2-yl}-N′-[(2R)-1-hydroxypropan-2-yl]urea] | 0.19 |
| CNC(=O)Nc1nc2c(s1)[C@@H]1COC[C@H](C2)N1c1ncc(-c2cccc(OC)n2)o1 [Example 15, N-{(4S,8S)-10-[5-(6-methoxypyridin-2-yl)-1,3-oxazol-2-yl]-4,7,8,9-tetrahydro-5H-4,8-epiminooxocino[5,4-d][1,3]thiazol-2-yl}-N′-methylurea] | 1.1 |
| O=C(Nc1nc2c(s1)CN(c1nc(C3CCC(F)(F)CC3)no1)CC2)N[C@@H]1CCC[C@H]1O [Example 25, N-{5-[3-(4,4-difluorocyclohexyl)-1,2,4-oxadiazol-5-yl]-4,5,6,7-tetrahydro[1,3]thiazolo[5,4-c]pyridin-2-yl}-N′-[(1R,2R)-2-hydroxycyclopentyl]urea] | 0.81 |
| C[C@@H](CO)NC(=O)Nc1nc2c(s1)[C@@H]1COC[C@H](C2)N1c1ncc(-c2cccc(OC(F)F)c2)o1 [Example 173, N-[(4S,8S)-10-{5-[3-(difluoromethoxy)phenyl]-1,3-oxazol-2-yl}-4,7,8,9-tetrahydro-5H-4,8-epiminooxocino[5,4-d][1,3]thiazol-2-yl]-N′-[(2S)-1-hydroxypropan-2-yl]urea] | 0.62 |
| COCCNC(=O)Nc1nc2c(s1)CN(c1nc(C3CC(F)(F)CCO3)no1)CC2 (centres unmarked) [Example 98, N-{5-[3-(4,4-difluorooxan-2-yl)-1,2,4-oxadiazol-5-yl]-4,5,6,7-tetrahydro[1,3]thiazolo[5,4-c]pyridin-2-yl}-N′-(2-methoxyethyl)urea] | 2.6 |
| CNC(=O)Nc1nc2c(s1)C1CCC(C2)N1c1cc(-c2ccc(F)cc2)on1 (centres unmarked) [Example 11, N-{9-[5-(4-fluorophenyl)-1,2-oxazol-3-yl]-5,6,7,8-tetrahydro-4H-5,8-epiminocyclohepta[d][1,3]thiazol-2-yl}-N′-methylurea] | 4.3 |
| CNC(=O)Nc1nc2c(s1)CN(c1nnc(C(F)(F)F)o1)CC2 [Example 2, N-methyl-N′-{5-[5-(trifluoromethyl)-1,3,4-oxadiazol-2-yl]-4,5,6,7-tetrahydro[1,3]thiazolo[5,4-c]pyridin-2-yl}urea] | 1.6 |
| C[C@H](O)CNC(=O)Nc1nc2c(s1)[C@@H]1COC[C@H](C2)N1c1ncc(-c2cccc(OC(F)F)n2)o1 [Example 174, N-[(4S,8S)-10-{5-[6-(difluoromethoxy)pyridin-2-yl]-1,3-oxazol-2-yl}-4,7,8,9-tetrahydro-5H-4,8-epiminooxocino[5,4-d][1,3]thiazol-2-yl]-N′-[(2S)-2-hydroxypropyl]urea] | 0.74 |
| O=C(Nc1nc2c(s1)[C@@H]1COC[C@H](C2)N1c1cc(-c2ccc(F)cc2)on1)N[C@H]1C[C@@H](O)C1 [Example 158, N-{(4S,8S)-10-[5-(4-fluorophenyl)-1,2-oxazol-3-yl]-4,7,8,9-tetrahydro-5H-4,8-epiminooxocino[5,4-d][1,3]thiazol-2-yl}-N′-[(1s,3R)-3-hydroxycyclobutyl]urea] | 1.1 |
| O=C(Nc1nc2c(s1)[C@@H]1COC[C@H](C2)N1c1cc(C2CCC(F)(F)CC2)on1)N[C@@H]1CCOC1 [Example 157, N-{(4S,8S)-10-[5-(4,4-difluorocyclohexyl)-1,2-oxazol-3-yl]-4,7,8,9-tetrahydro-5H-4,8-epiminooxocino[5,4-d][1,3]thiazol-2-yl}-N′-[(3R)-oxolan-3-yl]urea] | 4.6 |
| Cn1cnc(CNC(=O)Nc2nc3c(s2)CN(c2nc(C4CCC(F)(F)CC4)no2)CC3)n1 [Example 106, N-{5-[3-(4,4-difluorocyclohexyl)-1,2,4-oxadiazol-5-yl]-4,5,6,7-tetrahydro[1,3]thiazolo[5,4-c]pyridin-2-yl}-N′-[(1-methyl-1H-1,2,4-triazol-3-yl)methyl]urea] | 2.4 |
| O=C(Nc1nc2c(s1)[C@@H]1COC[C@H](C2)N1c1nc2cc(OC(F)(F)F)ccc2o1)N[C@H]1C[C@H](O)C1 [Example 54, N-[(1r,3S)-3-hydroxycyclobutyl]-N′-[(4S,8S)-10-(5-trifluoromethoxy-1,3-benzoxazol-2-yl)-4,7,8,9-tetrahydro-5H-4,8-epiminooxocino[5,4-d][1,3]thiazol-2-yl]urea] | 0.48 |
| O=C(Nc1nc2c(s1)[C@@H]1COC[C@H](C2)N1c1cc(-c2ccc(F)cc2)on1)NC1CCS(=O)(=O)CC1 [Example 165, N-(1,1-dioxo-1λ^6-thian-4-yl)-N′-{(4S,8S)-10-[5-(4-fluorophenyl)-1,2-oxazol-3-yl]-4,7,8,9-tetrahydro-5H-4,8-epiminooxocino[5,4-d][1,3]thiazol-2-yl}urea] | 0.41 |
| CC(C)(O)CNC(=O)Nc1nc2c(s1)[C@@H]1COC[C@H](C2)N1c1nc2cc(F)c(F)cc2o1 [Example 146, N-[(4S,8S)-10-(5,6-difluoro-1,3-benzoxazol-2-yl)-4,7,8,9-tetrahydro-5H-4,8-epiminooxocino[5,4-d][1,3]thiazol-2-yl]-N′-(2-hydroxy-2-methylpropyl)urea] | 1.9 |
| O=C(Nc1nc2c(s1)[C@@H]1COC[C@H](C2)N1c1cc(-c2ccc(F)cc2)on1)N[C@H]1CC[C@@H](O)CC1 [Example 61, N-{(4S,8S)-10-[5-(4-fluorophenyl)-1,2-oxazol-3-yl]-4,7,8,9-tetrahydro-5H-4,8-epiminooxocino[5,4-d][1,3]thiazol-2-yl}-N′-[(1s,4s)-4-hydroxycyclohexyl]urea] | 1.9 |
| COc1cccc(-c2cc(N3[C@@H]4COC[C@H]3c3sc(NC(=O)NC5CCOCC5)nc3C4)no2)n1 [Example 62, N-{(4S,8S)-10-[5-(6-methoxypyridin-2-yl)-1,2-oxazol-3-yl]-4,7,8,9-tetrahydro-5H-4,8-epiminooxocino[5,4-d][1,3]thiazol-2-yl}-N′-oxan-4-ylurea] | 2.6 |
| O=C(NCC1(O)CCOCC1)Nc1nc2c(s1)[C@@H]1COC[C@H](C2)N1c1nc2cc(Cl)ccc2o1 [Example 150, N-[(4S,8S)-10-(5-chloro-1,3-benzoxazol-2-yl)-4,7,8,9-tetrahydro-5H-4,8-epiminooxocino[5,4-d][1,3]thiazol-2-yl]-N′-[(4-hydroxyoxan-4-yl)methyl]urea] | 0.43 |

— patent US11981686B2, “Urea compound having substituent” (DAIICHI SANKYO COMPANY, LIMITED, priority 2019, dated 2024)
